Laboratory results from patent US10322126B2, “Solid dispersions of low-water solubility actives” (Bend Research, Inc., priority 2013, dated 2019).

Tests used:
[1] = cited from earlier work
[2] = Microcentrifuge dissolution test (simulated gastric buffer, then FaSSIF); format: physicochemical; conditions: 37° C.
Protocol: Dispersion 1 was evaluated in vitro using a microcentrifuge dissolution test using the following procedure. First, a sample of Dispersion 1 was placed in a microcentrifuge tube. A simulated gastric buffer (GB) solution consisting of 0.01 N HCl in water at 37° C. was added to each tube, so that the concentration if all of the active in the dispersion had dissolved would have been 2000 μg/mL. The tubes were vortexed for 1 minute. All work was performed in a temperature-controlled box at 37° C. After 9 minutes, the tubes were centrifuged at 13,000 rpm for 1 minute. A 50 μL centrifuged supernatant aliquot was removed from each tube and added to an HPLC vial containing 250 μL HPLC grade methanol. Following sample removal, the tubes were vortexed for 30 seconds. The tubes were allowed to sit undisturbed until the next sample, repeating the centrifuging/sampling/vortexing steps described above, to obtain a sample at 25 minutes following addition of the GB solution to the sample.
After 30 minutes in the GB solution, 0.8 mL of double strength (1 wt %) simulated intestinal fluid powder (SIF powder, available from Phares AG, Basel, Switzerland) in double strength phosphate buffer saline (0.166 M NaCl, 0.040 M Na2HPO4, and 0.093 M KH2PO4), adjusted to pH 6.5 was added to each tube. The tubes were vortexed for 1 minute. The testing solution composition was used to model fasted simulated intestinal fluid (FaSSIF). The FaSSIF powder contains bile salts (taurocholate) and phospholipids (lecithin) in a molar ratio of 4 to 1, along with buffers and osmotic adjusters. The concentration of active in each tube was 1000 μg/mL if all of the active had dissolved. After 3 minutes in the FaSSIF solution, the tubes were centrifuged at 13,000 rpm for 1 minute. A 50 μL centrifuged supernatant aliquot was removed, as previously described, and added to an HPLC vial containing 250 μL of methanol. The tube then was vortexed for 30 seconds, and left undisturbed until the next time point. The procedure was repeated to collect samples at 10, 20, 40, 90, and 180 minutes after addition of FaSSIF to the vials.
The dissolved concentrations of active were measured by HPLC. HPLC was performed using a Zorbax® SB-C18, 4.6×150 mm, 5 μm column at 30° C., and a mobile phase comprising 20 mM ammonium acetate/acetonitrile (43/57 vol/vol). The flow rate was 1.0 mL/min, 10 μL of each solution was injected, and the absorbance was measured at 332 nm.
Dispersion 2 was tested using the same procedures described above. Control 1 was tested using the same procedures described above.

C#Cc1cccc(Nc2ncnc3cc(OCCOC)c(OCCOC)cc23)c1 [Erlotinib, N-(3-ethynylphenyl)-6,7-bis(2-methoxyethoxy) quinazolin-4-amine]
solubility in phosphate buffered saline (pH 6.5) [1]: about 1 μg/mL | Dissolved Active Concentration ([2]; 10 minutes, GB solution (0.01 N HCl), 2000 μg/mL if all dissolved): 1,847.8 μg/mL | Dissolved Active Concentration ([2]; 25 minutes, GB solution (0.01 N HCl), 2000 μg/mL if all dissolved): 1,818.5 μg/mL | Dissolved Active Concentration ([2]; 34 minutes (4 min after addition of FaSSIF, pH 6.5), 1000 μg/mL if all dissolved): 58.0 µg/mL | Dissolved Active Concentration ([2]; 40 minutes (10 min after addition of FaSSIF, pH 6.5), 1000 μg/mL if all dissolved): 68.1 µg/mL | Dissolved Active Concentration ([2]; 50 minutes (20 min after addition of FaSSIF, pH 6.5), 1000 μg/mL if all dissolved): 51.4 µg/mL | Dissolved Active Concentration ([2]; 70 minutes (40 min after addition of FaSSIF, pH 6.5), 1000 μg/mL if all dissolved): 55.1 µg/mL | Dissolved Active Concentration ([2]; 120 minutes (90 min after addition of FaSSIF, pH 6.5), 1000 μg/mL if all dissolved): 67.8 µg/mL | Dissolved Active Concentration ([2]; 210 minutes (180 min after addition of FaSSIF, pH 6.5), 1000 μg/mL if all dissolved): 55.1 µg/mL
